From patent publication US5214054A, “Azacyclic carboxylic acid derivatives and their preparation and use” (Novo Nordisk A/S, priority 1988, dated 1993)
Counter-ions that a name gives are not always drawn.

System: GABA uptake
Assay: not given
Conditions: background art; cited from earlier work

SMILES | inhibition of GABA re-uptake / uptake (in words)
O=C(O)C1CCCN(CCC=C(c2ccccc2)c2cccs2)C1 (centres unmarked) [SK&F 100604J, N-(4-phenyl-4-(2-thienyl)-3-buten-1-yl)nipecotic acid] | oral inhibitors of GABA uptake
O=C(O)CC1CCN(CCC=C(c2ccccc2)c2ccccc2)C1 (stereo not drawn) [SK&F 100561, N-(4,4-diphenyl-3-buten-1-yl)homo-β-proline] | oral inhibitors of GABA uptake
O=C(O)C1CCCN(CCC=C(c2ccccc2)c2ccccc2)C1 (centres unmarked) [SK&F 89976A, N-(4,4-diphenyl-3-buten-1-yl)nipecotic acid] | oral inhibitors of GABA uptake
O=C(O)C1=CCCN(CCC=C(c2ccccc2)c2ccccc2)C1 [SK&F 100330A, N-(4,4-diphenyl-3-buten-l-yl)guvacine] | oral inhibitors of GABA uptake
O=C(O)C1CCCNC1 (centres unmarked) [piperidine-3-carboxylic acid] | potent inhibitor of GABA re-uptake

System: [^3 H]-GABA uptake
Assay: in vitro inhibition of [^3 H]-GABA uptake
Format: biochemical
Conditions: Male Wistar rat cortical tissue, 60 min, 30° C., pH 7.5, ligand 0.2 nM
Procedure: The in vitro inhibition of [^3 H]-GABA uptake was assessed essentially by the method of Fjalland (Acta Pharmacol. Toxicol. 42 (1978) 73-76). Male Wistar rat cortical tissue was gently homogenized by hand using a glass teflon homogenizer in 10 volumes of 0.32M sucrose. Incubation was performed in a 40 mM tris HCl buffer (pH 7.5 at 30° C.) containing […], […], 4 mM MgSO4, 2.3 mM CaCl2 and 10 mM glucose, for 60 min. at 30° C. Ligand concentration was 0.2 nM.

SMILES | IC50 [nM]
Cc1ccsc1C(=NOCCN1CCC[C@@H](C(=O)O)C1)c1sccc1C [Example 3, (R)-Bis(3-methyl-2-thienyl)methanone O-[2-(3-carboxypiperidin-1-yl)ethyl]oxime hydrochloride] | 30
Cc1ccccc1C(=NOCCN1CCC[C@@H](C(=O)O)C1)c1sccc1C [Example 2, (R)-(2-Methylphenyl)-(3-methyl-2-thienyl)methanone O-[2-(3-carboxypiperidin-1-yl)ethyl]oxime hydrochloride] | 44
O=C(O)[C@@H]1CCCN(CCON=C(c2ccccc2)c2ccccc2)C1 [Example 1, (R)-Diphenylmethanone O-[2-(3-carboxypiperidin-1-yl)ethyl]oxime] | 82

The remaining lines, values ahead:

IC50 [nM] | SMILES
59 | Cc1ccsc1C(=NOCCN1CCC=C(C(=O)O)C1)c1sccc1C [Example 46, Bis(3-methyl-2-thienyl)methanone O-[2-(3-carboxy-1,2,5,6-tetrahydropyridin-1-yl)ethyl]oxime hydrochloride]
138 | O=C(O)C1CCCN(CCON=C(c2ccccc2)c2ccccc2)C1 (centres unmarked) [Example 25, Diphenylmethanone O-[2-(3-carboxypiperidin-1-yl)ethyl]oxime hydrochloride]
217 | O=C(O)[C@@H]1CCCN(CCON=CC(c2ccccc2)c2ccccc2)C1 [Example 83, E/Z-(R)-2,2-Diphenylacetaldehyde O-[2-(3-carboxy-piperidin-1-yl)ethyl]oxime hydrochloride]
51 | Cc1ccsc1C(=NOCCN1CCC[C@H](C(=O)O)C1)c1sccc1C [Example 47, (S)-Bis(3-methyl-2-thienyl)methanone O-[2-(3-carboxypiperidin-1-yl)ethyl]oxime hydrochloride]
48 | O=C(O)C1=CCCN(CCON=C(c2ccccc2)c2ccccc2)C1 [Example 45, Diphenylmethanone O-[2-(3-carboxy-1,2,5,6-tetrahydropyridin-1-yl)ethyl]oxime]
58 | Cc1ccccc1C(=NOCCN1CCCC(C(=O)O)C1)c1sccc1C (centres unmarked) [Example 26, (2-Methylphenyl)-(3-methyl-2-thienyl)methanone O-[2-(3-carboxypiperidin-1-yl)ethyl]oxime hydrochloride]
64 | Cc1ccsc1C(=NOCCN1CCC[C@@H](C(=O)O)C1)c1cccs1 [Example 5, (R)-(3-Methyl-2-thienyl)-(2-thienyl)methanone O-[2-(3-carboxypiperidin-1-yl)ethyl]oxime]
52 | CCc1ccccc1C(=NOCCN1CCC[C@@H](C(=O)O)C1)c1sccc1C [Example 4, (R)-(2-Ethylphenyl)-(3-methyl-2-thienyl)methanone O-[2-(3-carboxypiperidin-1-yl)ethyl]oxime hydrochloride]

System: not given
Assay: not given
Conditions: background art; cited from earlier work

SMILES | ability to cross the blood-brain barrier (in words)
O=C(O)C1CCCNC1 (centres unmarked) [piperidine-3-carboxylic acid] | unable to cross the blood-brain b arrier
